As usually defined, the IC50 is the concentration that inhibits the measured activity by half. The low end stands for inhibition by little substance, the high end for a need for much substance.

SMILES strings stand for the structures.

In one data set the target is TNKS1/2. The data set can be described thus: TNKS1/2 inhibition, summary over the enzyme assays. It is filed as biochemical, human. Particulars: range over the assays used. Here is the method:
Samples were analyzed via phosphorimaging.

For data set [1], the system named is B16-F10 mouse melanoma isografts. The data set can be described thus: B16-F10 mouse melanoma isograft model, combination with TMZ. It is filed as in vivo. As for the experimental part:
(§1) All studies were performed according to IACUC approved protocols. The general health of mice was monitored daily.
TMZ combination in B16-F10 isograft model: female C57BL/6 mice were inoculated subcutaneously with B16-F10 cells (2 × 10^5). Following randomization by body weight, drug treatment was initiated 1 day post-inoculation. […] TMZ was administered daily on days 1 to 5 at 50 mg/kg as a single agent or in combination. […] The control group was treated with vehicle (0.5% methyl cellulose in water). E7449 or vehicle was administered first and when dosing of all animals was complete TMZ was administered to animals receiving the combination.

Data set [2] has as its system MDA-MB-436 human breast cancer xenografts. The data set can be described thus: MDA-MB-436 subcutaneous xenograft model, single agent. It counts as in vivo, mouse. As for the experimental part:
as §1

The subject of data set [3] is NCI-H460 human lung cancer xenografts. Description: NCI-H460 lung cancer xenograft model, antitumor activity. It counts as in vivo, mouse.
In data set [4] the test system is Wnt-mediated hair re-growth. Description: Re-growth of hair after depilation in C57BL/6 mice. It counts as in vivo, mouse. The following applies: 30, 100 or 300 mg/kg oral once daily for 12 days. From the text:
Re-growth of hair was monitored and recorded by photography.

On the set-up of data set [5]: method as in PMID 22246237. The following applies: cited from earlier work.
The mark [6] stands for this setting: E7449 10, 30, 100 mg/kg + TMZ 50 mg/kg.

On TNKS1/2, `O=c1[nH]nc2c3c(cccc13)N=C(CN1Cc3ccccc3C1)N2` [E7449, 8-(isoindolin-2-ylmethyl)-2,9-dihydro-3H-pyridazino[3,4,5-de]quinazolin-3-one] displayed an IC50 of 50 to 120 nM. In addition, the “growth of subcutaneous tumors, single agent” value in data set [1] (E7449 100 mg/kg or TMZ 50 mg/kg, oral once daily) is reported as “moderately inhibited”. Further, in data set [1] (setting [6]), the “animal lethality, combination with TMZ” value is reported as “No animal lethality occurred” and the “body weight, combination with TMZ” value is “body weight loss was observed in all 3 combination groups”. For the same molecule, in data set [1] (E7449 10, 30 and 100 mg/kg + TMZ 50 mg/kg, oral), the “tumor growth inhibition, combination with TMZ” value is “significantly enhanced tumor growth inhibition”. In data set [2] (30 or 100 mg/kg once daily for 28 days), the tolerability entry is reported as “well-tolerated without any significant body weight loss or deaths”. Moreover, in data set [2] (30 or 100 mg/kg oral once daily for 28 days), the “antitumor activity, single agent” value was “statistically significant antitumor activity”. Also, the antitumor activity result in data set [3] was “No antitumor activity”. The hair re-growth entry in data set [4] is on record as “significantly delayed”. Besides, in data set [5], the brain penetration entry is on record as “brain penetrable” and the oral bioavailability result is reported as “orally bioavailable”.

The record behind these values is PMC4747407 (Oncotarget, 2015).
